The subject of test [1] is isolated rabbit urinary bladder. As to the kind of experiment: Relaxation effect on potassium-induced contraction of isolated rabbit urinary bladder. The note with it: Oryctolagus cuniculus; 50% relaxation concentration; high-K+ (30 mM) pre-contracted rabbit bladder strips; relaxation as percentage of the maximum produced by 0.1 mM papaverine; read-out: EC50 value range. Format: cell-based. Here is the method: Relaxation effect on potassium-induced contraction of isolated rabbit urinary bladder
Urinary bladder was isolated from Male NZW rabbits (2.0-3.5 kg) and immersed in ice-cold Krebs-bicarbonate solution (in mM: 118 NaCl, 4.7 KCl, 1.2, 2.5 CaCl2, MgSO4, 1.2 KH2PO4, 11 glucose, 25 NaHCO3). The urinary bladder was cut into longitudinal strips (5 mm length, 3-4 mm width) after mucosal layer was removed. Preparations were mounted in organ baths containing 10 ml of Krebs solution maintained at 37° C. and gassed with 95% O2/5% CO2. Accordingly, preparations were stretched with an initial tension of 2.0±1.0 g, and changes in isometric tension were measured by force-displacement transducer. The preparations were pre-contracted by changing organ-bath solution into high-K^+ (30 mM) Krebs solution (in mM: 92.7 NaCl, 30 KCl, 1.2, 2.5 CaCl2, MgSO4, 1.2 KH2PO4, 11 glucose, 25 NaHCO3).
After stable tension was obtained, compounds were added into organ baths cumulatively (10^−8M-10^−4M). The effects of compounds were expressed as a percentage of the maximum relaxation produced by 0.1 mM papaverine. 50% relaxation concentration (EC50) was calculated and EC50 value range (μM) of the compounds of the present invention was shown in the following Table 64 with a rank of A, B or C. These ranges are as mentioned below. 3≧C≧1≧B≧0.5≧A

The test system of test [2] is rhythmic bladder contractions induced by substance P. Description: Inhibitory effect on the rhythmic bladder contractions induced by substance P in anesthetized rats. The note with it: time during which frequency of rhythmic contraction was completely inhibited, 0.25 mg/kg of the compound, substance P infusion. Format: in vivo, rat. In a few lines:
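Urethane-anesthetized female Sprague-Dawley rats with rhythmic bladder contractions driven by i.v. substance P (0.33 μg/kg/min). Compound given i.v. in saline/0.5% Tween 80 once contractions stable 15 min; intravesical pressure monitored, duration of 100% inhibition ranked A ≥20, B ≥10, C <10 min.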

Take `O=C([O-])Cc1nc(-c2ccc(F)cc2)oc1-c1ccc(Cl)s1.[Na+]` [Preparation Example 152, 5-(5-chloro-thiophen-2-yl)-2-(4-fluorophenyl)oxazol-4-yl acetic acid sodium salt]: the EC50 in test [1] lay within 1000 to 3000 nM. Also, the “100% inhibition time range” value in test [2] is given as “B (A≧20>B≧10>C (minute))”.

In the case of `COc1ccc(-c2nc(CC(=O)O)c(-c3cccs3)o2)cc1` [Preparation Example 155], the EC50 in test [1] was in the range of 1000 to 3000 nM. Moreover, in test [2], the “100% inhibition time range” value is recorded as “B (A≧20>B≧10>C (minute))”. The corresponding values for `O=C(O)Cc1nc(-c2ccc(F)cc2)oc1-c1csc2ccccc12` [Preparation Example 158] are 1000 to 3000 nM and “C (A≧20>B≧10>C (minute))”. For `Cc1nc(-c2ccc(F)cc2)[nH]c1-c1ccsc1` [Preparation Example 168], in that order: 500 to 1000 nM and “B (A≧20>B≧10>C (minute))”. For `CCc1nc(-c2ccc(F)cc2)[nH]c1-c1ccsc1` [Preparation Example 171], in that order: 1000 to 3000 nM and “B (A≧20>B≧10>C (minute))”.

In the case of `CCCc1nc(-c2ccc(F)cc2)[nH]c1-c1ccsc1` [Preparation Example 172], the EC50 in test [1] lay in the range of 1000 to 3000 nM. Further, the “100% inhibition time range” value in test [2] is on record as “C (A≧20>B≧10>C (minute))”. For `C[S+]([O-])Cc1nc(-c2ccc(F)cc2)[nH]c1-c1ccsc1` (stereo not shown) [Preparation Example 181], the EC50 in test [1] fell in the range of 500 to 1000 nM. Further, the “100% inhibition time range” value in test [2] is reported as “B (A≧20>B≧10>C (minute))”. For `FCCc1nc(-c2ccc(F)cc2)[nH]c1-c1ccccc1` [Preparation Example 182], in that order: not above 500 nM and “B (A≧20>B≧10>C (minute))”. The corresponding values for `Cc1nc(-c2ccc(F)cc2)[nH]c1-c1cccnc1` [Preparation Example 187] are 500 to 1000 nM and “B (A≧20>B≧10>C (minute))”. The corresponding values for `O=C(O)Cc1nc(-c2ccc(F)cc2)oc1-c1ccsc1` [Preparation Example 197] are 1000 to 3000 nM and “C (A≧20>B≧10>C (minute))”. As to `O=C(O)Cc1nc(-c2ccc(F)cc2)oc1-c1ccc(F)cc1` [Preparation Example 235], the EC50 in test [1] is 500 to 1000 nM. Further, the “100% inhibition time range” value in test [2] is “B (A≧20>B≧10>C (minute))”. For `O=C(O)Cc1nc(-c2ccc(F)cc2)oc1-c1ccc(Cl)c(Cl)c1` [Preparation Example 240], in that order: 500 to 1000 nM and “C (A≧20>B≧10>C (minute))”.

In the case of `O=C(O)Cc1nc(-c2ccc(F)cc2)oc1-c1ccc(Cl)cc1` [Preparation Example 243], in test [1], the concentration for a half-maximal effect (EC50) was not above 500 nM. In addition, the “100% inhibition time range” value in test [2] is recorded as “A (A≧20>B≧10>C (minute))”. For `O=C(O)Cc1nc(-c2ccc(F)cc2)oc1-c1ccc(C(F)(F)F)cc1` [Preparation Example 244], in that order: 1000 to 3000 nM and “B (A≧20>B≧10>C (minute))”. The corresponding values for `O=C(O)Cc1nc(-c2ccc(Cl)cc2)oc1-c1ccc(Br)s1` [Preparation Example 245] are 1000 to 3000 nM and “C (A≧20>B≧10>C (minute))”. For `COc1ccc(-c2nc(CC(=O)O)c(-c3ccc(F)c(F)c3)o2)cc1` [Preparation Example 246], in that order: 500 to 1000 nM and “B (A≧20>B≧10>C (minute))”.

Regarding `COc1ccc(-c2nc(CC(=O)O)c(-c3ccccc3F)o2)cc1` [Preparation Example 247], in test [1], the EC50 lay in the range of 1000 to 3000 nM. Besides, in test [2], the “100% inhibition time range” value is on record as “C (A≧20>B≧10>C (minute))”. The corresponding values for `CC(C)c1ccc(-c2oc(-c3ccc(F)cc3)nc2CC(=O)O)cc1` [Preparation Example 248] are 1000 to 3000 nM and “B (A≧20>B≧10>C (minute))”.

For `Cn1c(-c2oc(-c3ccc(F)cc3)nc2CC(=O)O)cc2ccccc21` [Preparation Example 249], the EC50 in test [1] fell in the range of 1000 to 3000 nM. Further, the “100% inhibition time range” value in test [2] is “B (A≧20>B≧10>C (minute))”. The corresponding values for `O=C(O)Cc1nc(-c2ccc(F)cc2)oc1-c1cccc(F)c1F` [Preparation Example 252] are 500 to 1000 nM and “C (A≧20>B≧10>C (minute))”. For `O=C(O)Cc1nc(-c2ccc(F)cc2)oc1-c1ccc(Cl)c(F)c1` [Preparation Example 253], in that order: 500 to 1000 nM and “A (A≧20>B≧10>C (minute))”. Turning to `O=C(O)Cc1nc(-c2ccc3occc3c2)oc1-c1ccsc1` [Preparation Example 255], the EC50 in test [1] fell in the range of 1000 to 3000 nM. For the same compound, the “100% inhibition time range” value in test [2] is on record as “B (A≧20>B≧10>C (minute))”. As to `O=C(O)Cc1nc(-c2ccc(F)cc2)oc1-c1ccc(Br)s1` [Preparation Example 256], in test [1], the EC50 was not above 500 nM. Moreover, in test [2], the “100% inhibition time range” value is “C (A≧20>B≧10>C (minute))”. As to `Cc1cc(-c2oc(-c3ccc(F)cc3)nc2CC(=O)O)sc1Cl` [Preparation Example 257], in test [1], the EC50 is not above 500 nM. In addition, in test [2], the “100% inhibition time range” value is “B (A≧20>B≧10>C (minute))”. Regarding `Cc1ccc(-c2nc(CC(=O)O)c(-c3ccccc3)o2)cc1` [Preparation Example 262], the EC50 in test [1] was in the range of 1000 to 3000 nM. The “100% inhibition time range” value in test [2] is “C (A≧20>B≧10>C (minute))”. The corresponding values for `O=C(O)Cc1nc(-c2cc3ccccc3s2)oc1-c1cccs1` [Preparation Example 267] are not above 500 nM and “C (A≧20>B≧10>C (minute))”.

`Cc1ccc(-c2nc(CC(=O)O)c(-c3cccs3)o2)s1` [Preparation Example 268]: the EC50 in test [1] was not above 500 nM. Moreover, the “100% inhibition time range” value in test [2] is listed as “C (A≧20>B≧10>C (minute))”. For the compound `O=C(O)Cc1nc(-c2ccc3occc3c2)oc1-c1cccs1` [Preparation Example 269], in test [1], the EC50 is not above 500 nM. Further, the “100% inhibition time range” value in test [2] is “B (A≧20>B≧10>C (minute))”. The corresponding values for `O=C(O)Cc1nc(-c2cc3ccccc3s2)oc1-c1ccc(Cl)s1` [Preparation Example 271] are 500 to 1000 nM and “C (A≧20>B≧10>C (minute))”.

Turning to `O=C(O)Cc1nc(-c2ccc3occc3c2)oc1-c1ccc(Cl)s1` [Preparation Example 272], the EC50 in test [1] was not above 500 nM. Further, the “100% inhibition time range” value in test [2] was “B (A≧20>B≧10>C (minute))”. In the case of `CC(C)c1ccc(-c2nc(CC(=O)O)c(-c3ccc(Cl)s3)o2)cc1` [Preparation Example 273], in test [1], the EC50 is 1000 to 3000 nM. Also, the “100% inhibition time range” value in test [2] is given as “C (A≧20>B≧10>C (minute))”. As for `O=C(O)Cc1nc(-c2ccc(Cl)cc2)oc1-c1ccc(Cl)s1` [Preparation Example 275], in test [1], the EC50 was not above 500 nM. The “100% inhibition time range” value in test [2] is “A (A≧20>B≧10>C (minute))”. The corresponding values for `O=C(O)Cc1nc(-c2ccccc2O)oc1-c1cccs1` [Preparation Example 277] are 500 to 1000 nM and “C (A≧20>B≧10>C (minute))”. The corresponding values for `Cc1cc(-c2nc(CC(=O)O)c(-c3ccc(Cl)s3)o2)on1` [Preparation Example 278] are 500 to 1000 nM and “B (A≧20>B≧10>C (minute))”. For `O=C(O)Cc1nc(-c2ccccc2)oc1-c1ccc(Cl)s1` [Preparation Example 279], in that order: not above 500 nM and “C (A≧20>B≧10>C (minute))”. Consider `CCCc1nc(-c2cc3ccccc3o2)[nH]c1-c1ccccc1` [Preparation example 38], for which, in test [1], the EC50 fell in the range of 1000 to 3000 nM. Same read-out and setting: the figure for `CCCc1nc(-c2ccccc2[N+](=O)[O-])[nH]c1-c1ccccc1` [Preparation example 39] is 1000 to 3000 nM. With `CCc1nc(-c2ccc(F)cc2)[nH]c1-c1cnccn1` [Preparation example 49], in test [1], the EC50 fell in the range of 500 to 1000 nM. For `CCc1nc(-c2ccc(F)cc2)[nH]c1-c1nccs1` [Preparation example 51], the EC50 in test [1] was not above 500 nM. Take `CCc1nc(-c2ccc(F)cc2)[nH]c1-c1cscn1` [Preparation example 52]: the EC50 in test [1] was not above 500 nM. The same measure, in the same setting: the figure for `CCc1nc(-c2cccc(C#N)c2)[nH]c1-c1cccnc1` [Preparation example 57] is 1000 to 3000 nM. Take `CCc1nc(-c2ccc(C)nc2)[nH]c1-c1ccsc1` [Preparation example 81]: the EC50 in test [1] is 1000 to 3000 nM. Consider `CCc1nc(-c2ccc(F)cc2)[nH]c1-c1ccccc1OC` [Preparation example 84], for which the EC50 in test [1] was not above 500 nM. The same measure, in the same setting: next, `CCCc1nc(-c2ccc(F)cc2)[nH]c1-c1cccc(OC)c1` [Preparation example 96]: 1000 to 3000 nM; `CCCc1nc(-c2ccc(F)cc2)[nH]c1-c1ccccn1` [Preparation example 97]: 500 to 1000 nM; `COCc1nc(-c2ccc(F)cc2)[nH]c1-c1ccccc1` [Preparation example 121]: 1000 to 3000 nM. Same read-out and setting: next, `CSCc1nc(-c2cccc(F)c2)[nH]c1-c1ccccc1` [Preparation example 131]: 1000 to 3000 nM.

In general, EC50 refers to the concentration that produces a half-maximal response.

The record behind these values is patent publication US7759373B2, “Large conductance calcium-activated K channel opener” (Mitsubishi Tanabe Pharma Corporation, priority 2001, dated 2010).
